Consider four compounds from patent US8188127B2, “Microbicidal composition” (Rohm and Haas Company, priority 2007, dated 2012).

What all share (assay type): cell-based
One experiment concerns A. niger ATCC # 16404. Nature of the experiment: Microtiter plate MIC / synergy test (Kull synergy index), mold, PDB medium. The settings on record: for Ca: ppm AI of first component (A) alone (MIC, QA): A. niger; for Ca: MIC of TCMTB alone / Ca: MIC of BIOBAN1246 alone: component alone. The source says:
(§1) One measure of synergism is the industrially accepted method described by Kull, F. C.; Eisman, P. C.; Sylwestrowicz, H. D. and Mayer, R. L., in Applied Microbiology 9:538-541 (1961), using the ratio determined by the formula: Qa/QA+Qb/QB=Synergy Index (“SI”) wherein: • QA=concentration of compound A (first component) in ppm, acting alone, which produced an end point (MIC of Compound A). • Qa=concentration of compound A in ppm, in the mixture, which produced an end point. • QB=concentration of compound B (second component) in ppm, acting alone, which produced an end point (MIC of Compound B). • Qb=concentration of compound B in ppm, in the mixture, which produced an end point.
(§2) When the sum of Qa/QA and Qb/QB is greater than one, antagonism is indicated. […] The lower the SI, the greater the synergy shown by that particular mixture. The minimum inhibitory concentration (MIC) of a microbicide is the lowest concentration tested under a specific set of conditions that prevents the growth of added microorganisms.
(§3) Synergy tests were conducted using standard microtiter plate assays with media designed for optimal growth of the test microorganism. Minimal salt medium supplemented with 0.2% glucose and 0.1% yeast extract (M9GY medium) was used for testing bacteria; Potato Dextrose Broth (PDB medium) was used for testing yeast and mold. In this method, a wide range of combinations of microbicides was tested by conducting high resolution MIC assays in the presence of various concentrations of MBIT. High resolution MICs were determined by adding varying amounts of microbicide to one column of a microtitre plate and doing subsequent […] dilutions using an automated liquid handling system to obtain a series of endpoints ranging from 2 ppm to 10,000 ppm active ingredient.
(§4) The synergy of the combinations of the present invention was determined against several microorganisms, as described in the Tables below. The bacteria were used at a concentration of about 5×10^6 bacteria per mL and the yeast and mold at 5×10^5 fungi per mL. These microorganisms are representative of natural contaminants in many consumer and industrial applications. […] (yeast and mold) or 30° C. (bacteria).
(§5) In each test, Second Component (B) was MBIT and the First Component (A) was the other commercial microbicide.

Another experiment concerns C. albicans ATCC # 10231. Nature of the experiment: Microtiter plate MIC / synergy test (Kull synergy index), yeast, PDB medium. The settings on record: for Ca: ppm AI of first component (A) alone (MIC, QA): C. albicans; for Ca: MIC of TCMTB alone / Ca: MIC of BIOBAN1246 alone: component alone.
Excerpt: as §1, §2, §3, §4, §5

Experiment [1] relates to Ps. aeruginosa ATCC # 9027. Nature of the experiment: Microtiter plate MIC / synergy test (Kull synergy index), bacteria, M9GY medium. Particulars: for Ca: ppm AI of first component (A) alone (MIC, QA): Ps. aeruginosa. How it is done:
as §2, §3
The bacteria were used at a concentration of about 5×10^6 bacteria per mL and the yeast and mold at 5×10^5 fungi per mL. These microorganisms are representative of natural contaminants in many consumer and industrial applications. […] (yeast and mold) or 30° C. (bacteria).
as §5

The test system of another experiment is S. aureus ATCC # 6538. The description is as above. The settings on record: for Ca: ppm AI of first component (A) alone (MIC, QA): S. aureus.
Excerpt: as §1, §2, §3, §4, §5

Setting [2] is: A. niger ATCC # 16404, contact time 3 days.
[3] abbreviates: A. niger ATCC # 16404, contact time 7 days.
Setting [4] is: C. albicans ATCC # 10231, contact time 48 hrs.
The mark [5] stands for this setting: C. albicans ATCC # 10231, contact time 72 hrs.
[6] abbreviates: Ps. aeruginosa ATCC # 9027, contact time 48 hrs, component alone.
[7] abbreviates: S. aureus ATCC # 6538, contact time 24 hrs, component alone.

Consider `CC1(C)COCN1` [BIOBAN 1135, 4,4-dimethyloxazolidine], for which the “Ca: ppm AI of first component (A) alone (MIC, QA)” value (“Ca: ppm AI of first component” below) was determined as 525 ppm AI in the experiment with A. niger ATCC # 16404 (contact time 3 days); 875 ppm AI in the experiment with A. niger ATCC # 16404 (contact time 7 days); 1100 ppm AI in the experiment with C. albicans ATCC # 10231 (contact time 48 hrs); 1100 ppm AI in the experiment on C. albicans ATCC # 10231 (contact time 72 hrs); 100 ppm AI in experiment [1] (contact time 24 hrs); 100 ppm AI in experiment [1] (contact time 48 hrs). The “Ca: ppm AI of first component” value with S. aureus ATCC # 6538 (contact time 24 hrs) and in the experiment on S. aureus ATCC # 6538 (contact time 48 hrs) was 55 ppm AI throughout.
In the case of `N#CSCSc1nc2ccccc2s1` [TCMTB], the “Ca: MIC of TCMTB alone” value in the experiment on A. niger ATCC # 16404 (setting [2]) is 3 ppm AI; in the experiment with A. niger ATCC # 16404 (setting [3]), 8.75 ppm AI; in the experiment with C. albicans ATCC # 10231 (setting [4]) it was 4.25 ppm AI; with C. albicans ATCC # 10231 (setting [5]) it was 5.25 ppm AI; in experiment [1] (setting [6]), 212.5 ppm AI; in the experiment with S. aureus ATCC # 6538 (setting [7]), 26.25 ppm AI.
As to `CCC12COCN1COC2` [BIOBAN1246], the “Ca: MIC of BIOBAN1246 alone” value in the experiment with A. niger ATCC # 16404 (setting [2]) is 650 ppm AI; with A. niger ATCC # 16404 (setting [3]) it was 875 ppm AI; with C. albicans ATCC # 10231 (setting [4]) it was 3000 ppm AI; in the experiment on C. albicans ATCC # 10231 (setting [5]), 4250 ppm AI; in experiment [1] (Ps. aeruginosa ATCC # 9027, contact time 24 hrs, component alone), 100 ppm AI; in experiment [1] (setting [6]) it was 150 ppm AI. Further, the “Ca: MIC of BIOBAN1246 alone” value with S. aureus ATCC # 6538 (setting [7]) was found to be 55 ppm AI; in the experiment with S. aureus ATCC # 6538 (S. aureus ATCC # 6538, contact time 48 hrs, component alone) it was 55 ppm AI.
`OCCN1CN(CCO)CN(CCO)C1` [BIOBAN GK, hexahydro-1,3,5-tris(2-hydroxyethyl)-s-triazine]: the “Ca: ppm AI of first component” value in the experiment on A. niger ATCC # 16404 (contact time 3 days) was found to be 425 ppm AI; in the experiment on A. niger ATCC # 16404 (contact time 7 days), 650 ppm AI; in the experiment with C. albicans ATCC # 10231 (contact time 48 hrs), 875 ppm AI; in the experiment on C. albicans ATCC # 10231 (contact time 72 hrs), 875 ppm AI; in experiment [1] (contact time 24 hrs), 55 ppm AI; in experiment [1] (contact time 48 hrs), 55 ppm AI. Also, the “Ca: ppm AI of first component” value in the experiment on S. aureus ATCC # 6538 (contact time 24 hrs) and with S. aureus ATCC # 6538 (contact time 48 hrs) was 55 ppm AI in each case.
